Experimental data published in US20250129095A1, “ANNULATED 2-AMINO-3-CYANO THIOPHENES AND DERIVATIVES FOR THE TREATMENT OF CANCER” (Boehringer Ingelheim Int'l GmbH Corp., priority 2021, published 2025).

Columns and labels:
Format in all cases: cell-based
MKN1 cells [1] = test: MKN1 CTG proliferation assay (120 h) (gastric cancer, wt amplified), assay 2; details: Homo sapiens, MKN-1
Experimental: (§1) SAS cells (JCRB0260) are dispensed into 384-well plates, flat and clear bottom (Greiner, PNr. 781091) at a density of 300 cells per well in 60 μL DMEM:F12 (Gibco 31330-038)+10% Fetal Calf Serum (HyClone, PNr.: SH30084.03) and incubated at 37° C. in a CO2 incubator overnight The next day, compounds (10 mM stock in DMSO) are added with the ECHO acoustic liquid handler system (Beckman Coulter), including DMSO controls. Plates are incubated for 120 h, and cell viability is measured using CellTiter-Glo luminescent cell viability reagent (Promega product code G7570). Viability (stated as percent of control) is defined as relative luminescence units RLU of each well divided by the RLU of cells in DMSO controls.
(§2) MKN1 cells (JCRB0252) are dispensed into white 384-well plates, flat and white bottom (Perkin Elmer, 6007680) at a density of 500 cells per well in 40 μl RPMI (Gibco, PNr.: 21875034)+10% FCS (HyClone, PNr.: SH30084.03) (assay 1) or into black 384-well plates, flat and clear bottom (Greiner, PNr. 781091) at a density of 200 cells per well in 60 μl RPMI-1640 (Gibco #A10491)+10% FCS (HyClone, PNr.: SH30084.03)+PenStrep (Gibco, PNr.15140-122) (assay 2). […] Compounds (10 mM stock in DMSO) are added at logarithmic dose series using the HP Digital Dispenser D300 (Tecan) (assay 1) or the ECHO acoustic liquid handler system (Beckman Coulter) (assay 2), including DMSO controls and normalizing for added DMSO. Plates are incubated for 120 h, and cell viability is measured using CellTiter-Glo luminescent cell viability reagent (Promega product code G7570). Viability (stated as percent of control) is defined as relative luminescence units RLU of each well divided by the RLU of cells in DMSO controls.

GP2D cells = test: GP2D proliferation assay (120 h) (colorectal cancer, G12D)
Experimental: GP2D cells (ATCC No. CRL-5807) are dispensed into white 384-well plates, flat and white bottom (Perkin Elmer, 6007680) at a density of 500 cells per well in 40 μl DMEM (Sigma, D6429)+1× GlutaMAX (Gibco, 35050038)+10% FCS (fetal calf serum). […] Compounds (10 mM stock in DMSO) are added at logarithmic dose series using the HP Digital Dispenser D300 (Tecan), including DMSO controls and normalizing for added DMSO. For the TO time point measurement, untreated cells are analyzed at the time of compound addition. Plates are incubated for 120 h, and cell viability is measured using CellTiter-Glo luminescent cell viability reagent (Promega product code G7570). Viability (stated as percent of control) is defined as relative luminescence units RLU of each well divided by the RLU of cells in DMSO controls.

MKN1 cells [2] = test: MKN1 CTG proliferation assay (120 h) (gastric cancer, wt amplified), assay 1; details: Homo sapiens, MKN-1
Experimental: as §1, §2

Row | Compound | IC50 (MKN1 cells [1]) [µM] | IC50 (GP2D cells) [µM] | IC50 (MKN1 cells [2]) [µM]
1 | C[C@H](Oc1cc(Oc2cccnc2)nc(-c2onc3c2CCC[C@@]32CCCc3sc(N)c(C#N)c32)n1)[C@@H]1CCCN1C [Example I-2] | 0.109 | – | –
2 | C[C@H](Oc1cc(Oc2cncnc2)nc(-c2onc3c2CCC[C@@]32CCCc3sc(N)c(C#N)c32)n1)[C@@H]1CCCN1C [Example I-3] | – | 0.012 | –
3 | C[C@H](Oc1cc(OCC2(N(C)C)COC2)nc(-c2onc3c2CCC[C@@]32CCCc3sc(N)c(C#N)c32)n1)[C@@H]1CCCN1C [Example I-8] | 0.108 | 0.011 | –
4 | C[C@H](Oc1cc(Oc2cncnc2)nc(-c2noc3c2CCC[C@@]32CCCc3sc(N)c(C#N)c32)n1)[C@@H]1CCCN1C [II-1] | 0.043 | 0.01 | –
5 | C[C@H](Oc1cc(O[C@H]2CCOC2)nc(-c2noc3c2CCC[C@@]32CCCc3sc(N)c(C#N)c32)n1)[C@@H]1CCCN1C [II-4] | – | 0.178 | –
6 | C[C@H](Oc1cc(OCCO)nc(-c2noc3c2CCC[C@@]32CCCc3sc(N)c(C#N)c32)n1)[C@@H]1CCCN1C [II-6] | 0.09 | – | –
7 | C[C@H](Oc1cc(O[C@@H]2CNC2(C)C)nc(-c2noc3c2CCC[C@@]32CCCc3sc(N)c(C#N)c32)n1)[C@@H]1CCCN1C [II-9] | 0.129 | – | –
8 | C[C@H](Oc1cc(Nc2ncccn2)nc(-c2noc3c2CCC[C@@]32CCCc3sc(N)c(C#N)c32)n1)[C@@H]1CCCN1C [II-17] | – | 0.363 | –
9 | C[C@H](Oc1cc(OCC2(N(C)C)CC2)nc(-c2noc3c2CCC[C@@]32CCCc3sc(N)c(C#N)c32)n1)[C@@H]1CCCN1C [II-21] | – | 0.008 | –
10 | C[C@H](Oc1cc(OCC2(N(C)C)COC2)nc(-c2noc3c2CCC[C@@]32CCCc3sc(N)c(C#N)c32)n1)[C@@H]1CCCN1C [II-22] | – | 0.005 | 0.033
11 | COc1c(OCC2(N(C)C)COC2)nc(-c2noc3c2CCC[C@@]32CCCc3sc(N)c(C#N)c32)nc1O[C@@H](C)[C@@H]1CCCN1C [II-25] | – | 0.017 | –
12 | C[C@H]1CN(C)CCCN1c1cc(O[C@@H]2CNC2(C)C)nc(-c2noc3c2CCC[C@@]32CCCc3sc(N)c(C#N)c32)n1 [II-28] | – | 0.02 | –
13 | C[C@H](Oc1cc(O[C@@H]2CNC[C@@H]2F)nc(-c2noc3c2CCC[C@@]32CCCc3sc(N)c(C#N)c32)n1)[C@@H]1CCCN1C [II-29] | – | 0.009 | –
14 | CO[C@@H]1C[C@@H]([C@H](C)Oc2cc(O[C@@H]3CNC3(C)C)nc(-c3noc4c3CCC[C@@]43CCCc4sc(N)c(C#N)c43)n2)N(C)C1 [II-30] | – | – | 0.223
15 | C[C@H](Oc1cc(O[C@@H]2CNC2(C)C)nc(-c2noc3c2CCC[C@@]32CCCc3sc(N)c(C#N)c32)n1)[C@@H]1C[C@@H](F)CN1C [II-31] | – | 0.001 | 0.357
